Reference: the supplement of paper PMC10307832

Key:
Experiment in all cases: relative viability (nuclei count vs DMSO), 5 days (fraction); higher = more cells survive
GW-2580 = compound: COC1=CC=C(C=C1)COC2=C(C=C(C=C2)CC3=CN=C(N=C3N)N)OC [GW-2580]
Outline: (§1)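 Vehicle-anchored 1536-well plates of lung cancer cell lines, held overnight at 37 °C, were pinned with five library-drug doses (not always all listed) spaced by √10. No medium change followed over the next 5 days, after which the cells were fixed, permeabilised and Hoechst-stained together and imaged at 4×. Nuclei were counted with MetaXpress, and viability is treated-well nuclei over vehicle-well nuclei, taken as a median across plates. Plates passed with control CV below 25% and at least one doubling.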

Fedratinib = compound: Cc1cnc(Nc2ccc(OCCN3CCCC3)cc2)nc1Nc1cccc(S(=O)(=O)NC(C)(C)C)c1 [Fedratinib]
Outline: as §1

GW-2580 + Alpelisib = compound: COC1=CC=C(C=C1)COC2=C(C=C(C=C2)CC3=CN=C(N=C3N)N)OC [GW-2580] + Cc1nc(NC(=O)N2CCC[C@H]2C(N)=O)sc1-c1ccnc(C(C)(C)C(F)(F)F)c1 [Alpelisib] (partner 2 µM)
Outline: (§2)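 Each reported value is a median over duplicate plates. It expresses relative viability: treated-well nuclei count divided by vehicle-well nuclei count. Lung cancer cell lines in 1536-well plates were dosed by pin tool a day after seeding, alone with one drug or with a fixed anchor-drug dose plus five library-drug doses (not always all listed) in √10 steps, and nuclei were counted after 5 days.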

GW-2580 + Pemetrexed = compound: COC1=CC=C(C=C1)COC2=C(C=C(C=C2)CC3=CN=C(N=C3N)N)OC [GW-2580] + Nc1nc2[nH]cc(CCc3ccc(C(=O)N[C@@H](CCC(=O)O)C(=O)O)cc3)c2c(=O)[nH]1 [Pemetrexed] (partner 0.2 µM)
Outline: as §2

Fedratinib + Bortezomib = compound: Cc1cnc(Nc2ccc(OCCN3CCCC3)cc2)nc1Nc1cccc(S(=O)(=O)NC(C)(C)C)c1 [Fedratinib] + CC(C)C[C@H](NC(=O)[C@H](Cc1ccccc1)NC(=O)c1cnccn1)B(O)O [Bortezomib] (partner 0.002 µM)
Outline: as §2

Cell Line | relative viability (GW-2580; 0.08 µM) | relative viability (GW-2580; 0.8 µM) | relative viability (GW-2580; 2.53 µM) | relative viability (GW-2580; 8 µM) | relative viability (Fedratinib; 0.1 µM) | relative viability (Fedratinib; 0.3162 µM) | relative viability (Fedratinib; 1 µM) | relative viability (GW-2580 + Alpelisib; first compound 0.08 µM) | relative viability (GW-2580 + Alpelisib; first compound 0.8 µM) | relative viability (GW-2580 + Alpelisib; first compound 2.53 µM) | relative viability (GW-2580 + Alpelisib; first compound 8 µM) | relative viability (GW-2580 + Pemetrexed; first compound 0.08 µM) | relative viability (GW-2580 + Pemetrexed; first compound 0.8 µM) | relative viability (GW-2580 + Pemetrexed; first compound 2.53 µM) | relative viability (GW-2580 + Pemetrexed; first compound 8 µM) | relative viability (Fedratinib + Bortezomib; first compound 0.1 µM) | relative viability (Fedratinib + Bortezomib; first compound 0.3162 µM) | relative viability (Fedratinib + Bortezomib; first compound 1 µM)
NCI-H520 | 1.09 | 1.13 | 0.894 | 1.12 | 0.93 | 0.997 | 0.9 | 1.02 | 0.988 | 0.837 | 0.966 | 0.7 | 0.579 | 0.598 | 0.554 | 0.524 | 0.711 | 0.173
NCI-H647 | 1.12 | 1.14 | 0.846 | 0.97 | 0.867 | 0.952 | 0.777 | 1.44 | 1.45 | 1.04 | 1.13 | 0.16 | 0.185 | 0.16 | 0.229 | 0.976 | 1.16 | 0.395
NCI-H1792 | 0.939 | 1.18 | 0.92 | 0.842 | 0.835 | 0.989 | 0.815 | 0.552 | 0.809 | 0.288 | 0.907 | 0.843 | 0.773 | 0.688 | 0.644 | 1.14 | 0.994 | 0.887
SK-LU-1 | 1.09 | 1.12 | 0.826 | 1.14 | 1.06 | 0.906 | 0.868 | 0.936 | 1.09 | 0.85 | 1.18 | 1.09 | 1.05 | 0.878 | 0.996 | 1.33 | 1.23 | 0.967
NCI-H2009 | 1.06 | 0.996 | 0.967 | 0.888 | 0.956 | 1.08 | 0.987 | 1.16 | 1.17 | 1.08 | 1.11 | 1.06 | 1.11 | 0.945 | 0.843 | 0.99 | 1.11 | 0.131
LOU-NH91 | 0.987 | 1.05 | 0.843 | 0.973 | 0.893 | 1.08 | 0.723 | 0.677 | 0.756 | 0.635 | 0.688 | 0.349 | 0.381 | 0.399 | 0.412 | 0.449 | 0.526 | 0.468
NCI-H2405 | 0.99 | 1.13 | 0.902 | 0.936 | 0.937 | 0.939 | 0.834 | 0.794 | 0.718 | 0.751 | 0.751 | 1.04 | 1.2 | 1.02 | 0.799 | 1.05 | 0.77 | 0.957
LCLC-97TM1 | 0.972 | 1.07 | 0.848 | 1.03 | 1.05 | 1.02 | 0.778 | 0.233 |  | 0.189 | 0.226 | 0.158 | 0.143 | 0.179 | 0.172 | 0.636 | 0.527 | 0.228
NCI-H596 | 1.03 | 1.07 | 1.02 | 1.18 | 0.99 | 0.973 | 0.851 | 0.486 | 0.525 | 0.516 | 0.471 | 0.44 | 0.502 | 0.562 | 0.512 | 1.01 | 1.21 | 0.919
H3255 | 0.954 | 1.2 | 0.894 | 0.85 | 0.963 | 0.923 | 0.86 | 0.659 | 0.846 | 0.686 | 0.676 | 0.553 | 0.609 | 0.554 | 0.552 | 0.63 | 0.742 | 0.605
NCI-H1437 | 1 | 1.06 | 0.926 | 0.835 | 0.978 | 0.982 | 0.926 | 1.12 | 1.11 | 0.892 | 0.81 | 0.297 | 0.307 | 0.299 | 0.273 | 0.432 | 0.473 | 0.191
LU99A | 0.991 | 0.875 | 0.949 | 0.916 | 0.969 | 0.934 | 0.924 | 0.496 | 0.522 | 0.354 | 0.528 | 0.246 | 0.176 | 0.193 | 0.17 | 1.12 | 1.14 | 0.466
HCC-827 | 1.06 | 1.05 | 1.04 | 0.965 | 1.07 | 1.01 | 1.03 | 1.15 | 0.923 | 0.902 | 0.915 | 0.242 | 0.259 | 0.236 | 0.276 | 1.09 | 1.03 | 1.03
HCC-366 | 0.997 | 1.06 | 1.11 | 1.07 | 0.997 | 1.02 | 0.962 | 0.367 | 0.575 | 0.43 | 0.355 | 0.194 | 0.145 | 0.16 | 0.121 | 1.22 | 1 | 0.174
BEN | 0.949 | 1.08 | 0.776 | 0.905 | 0.842 | 0.91 | 0.831 | 0.996 | 1.07 | 1.04 | 1.03 | 1.91 | 0.762 | 0.615 | 0.702 | 0.673 | 0.607 | 0.559
NCI-H23 | 1.03 | 1.11 | 0.983 | 0.99 | 1.01 | 0.908 | 0.597 | 0.76 | 0.735 | 0.512 | 0.749 | 0.581 | 0.869 | 0.777 | 0.492 | 0.946 | 0.943 | 0.173
201T | 0.974 | 1.13 | 1.06 | 0.959 | 0.963 | 1 | 0.918 | 1.02 | 1.1 | 1.01 | 1.01 | 0.371 | 0.351 | 0.329 | 0.346 | 1.01 | 1.07 | 1.08
NCI-H460 | 1.07 | 1.05 | 1.01 | 0.952 | 0.997 | 0.974 | 0.979 | 0.49 | 0.464 | 0.44 | 0.511 | 0.0622 | 0.0626 | 0.0647 | 0.0595 | 1.84 | 1.13 | 1.04
NCI-H661 | 1.03 | 1.04 | 0.951 | 0.814 | 0.876 | 1.06 | 0.914 | 0.542 | 0.835 | 0.426 | 0.479 | 1.04 | 0.901 | 0.957 | 0.782 | 0.81 | 0.894 | 0.9
HCC-15 | 1.08 | 1.19 | 0.98 | 1.02 | 0.869 | 0.972 | 0.911 | 0.915 | 0.894 | 0.87 | 0.82 | 0.228 | 0.235 | 0.235 | 0.251 | 1.04 | 0.963 | 0.469
NCI-H1563 | 0.982 | 0.966 | 0.876 | 0.912 | 0.949 | 1.04 | 0.933 | 0.989 | 1.05 | 0.853 | 0.869 | 0.763 | 0.883 | 0.674 | 0.792 | 0.699 | 0.939 | 0.631
LCLC-103H | 0.999 | 0.909 | 0.977 | 0.927 | 0.952 | 1 | 0.932 | 0.928 | 1.11 | 0.961 | 0.954 | 0.452 | 0.416 | 0.447 | 0.5 | 0.801 | 0.997 | 0.897
NCI-H441 | 1.07 | 0.924 | 1.01 | 1.14 | 1.03 | 1.04 | 0.734 | 0.972 | 0.853 | 0.718 | 0.699 | 0.273 | 0.26 | 0.234 | 0.262 | 0.538 | 0.484 | 0.236
EPLC-272H | 0.995 | 1.15 | 0.763 | 0.891 | 0.921 | 0.938 | 0.327 | 0.996 | 1.08 | 0.904 | 0.98 | 0.325 | 0.283 | 0.342 | 0.329 | 0.946 | 0.83 | 0.451
